Measurements reported in ChEMBL document CHEMBL3853345, “Gabosines P and Q, new carbasugars from Streptomyces sp. and their α-glucosidase inhibitory activity” (Bioorg Med Chem Lett, 2016).

Key:
[1] = Inhibition of alpha-glucosidase (unknown origin) assessed as reduction in PNP release using PNPG as substrate preincubated for 10 mins followed by substrate addition measured after 40 mins by spectrophotometric method; parameters: species or system Homo sapiens
[2] = species on record: Homo sapiens; test: Potency index, ratio of acarbose IC50 to compound IC50 for alpha-glucosidase (unknown origin)

Row | SMILES | IC50 [1] | Ratio IC50 [2]
1 | CC(=O)O[C@H]1C=C(CO)C(=O)[C@H](O)[C@H]1O | 9.07 µM | 70
2 | C[C@H]1O[C@H](O[C@H]2[C@H](O)[C@@H](O)[C@@H](O[C@H]3[C@H](O)[C@@H](O)C(O)O[C@@H]3CO)O[C@@H]2CO)[C@H](O)[C@@H](O)[C@@H]1N[C@H]1C=C(CO)[C@@H](O)[C@H](O)[C@H]1O (stereo partly drawn) [ACARBOSE] | 663 µM | 
